The target in the experiment is porcine pancreatic elastase (Sus scrofa, UniProt P00772). Put plainly: Elastase inhibitory activity of peptides (AAApNA hydrolysis; IC50, Ki, residual activity). In kind it is biochemical. The following applies: for IC50 / Residual activity of elastase: elastase 0.5 μM, AAApNA 1 mM. The procedure: The inhibition constants of various synthetic active peptide inhibitors (molecular scaffolds) against seine proteases were measured. The substrates N-succinyl-Ala-Ala-Pro-Phe-p-nitroaniline (AAPFpNA), Nα—Benzoyl-L-arginine-4-nitroaniline hydrochloride (BApNA) and N-succinyl-[…] (AAApNA) are used in competitive binding reaction to determine the inhibitory activities against α-chymotrypsin, bovine trypsin, and porcine pancreatic elastase, respectively. Experiments for α-chymotrypsin and bovine trypsin inhibition were measured in 20 mM CaCl2, 50 mM Tris-HCl buffer (pH 7.8), and that for porcine elastase inhibition was measured in 50 mM Tris-HCl buffer (pH 8.0). The concentration of the peptide was measured using optical density (OD) at 280 nm. The Michaelis constant (Km) of the enzyme hydrolysis substrate is calculated from the initial rate of substrate hydrolysis at 405 nm. The absorbance value of the substrate was measured at 405 nm after complete hydrolysis. All data were processed using nonlinear regression.
Chain of porcine pancreatic elastase (P00772 27-266): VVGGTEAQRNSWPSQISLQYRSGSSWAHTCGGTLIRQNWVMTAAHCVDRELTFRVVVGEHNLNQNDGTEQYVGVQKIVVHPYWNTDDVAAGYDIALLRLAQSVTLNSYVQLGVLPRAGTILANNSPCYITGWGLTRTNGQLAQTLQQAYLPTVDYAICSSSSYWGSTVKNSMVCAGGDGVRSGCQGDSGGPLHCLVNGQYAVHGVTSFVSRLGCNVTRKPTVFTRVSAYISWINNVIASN
• (1) Added a total 198 μL of reaction buffer (20 mM CaCl2, 50 mM Tris-HCl (pH 8.0)) into the 96 well plate, followed by preheating at 37° C. for 15 min. Then added 2 μL of different concentrations of substrates (pNA, dissolved in DMSO), and mixed by centrifugation at 500 rpm for 1 min. Finally, the plate was incubated at 37° C. for 30 min, and the absorbance value at 405 nm was measured. In the 200 μL of reaction system, the final concentrations of pNA were 0, 0.025, 0.05, 0.075, 0.1, 0.125, 0.15, 0.175, and 0.2 mM, respectively. Make three repetitions for each concentration and plot the OD405 m value with pNA concentration to obtain the standard curve. • (2) Added a total 190 μL of reaction buffer (20 mM CaCl2, 50 mM Tris-HCl (pH 8.0)) and 8 μL of 4.375 μM elastase into the 96 well plate, followed by preheating at 37° C. for 5 min. Then added 2 μL of different concentrations of substrates (AAApNA, dissolved in DMSO), and mixed by centrifugation at 500 rpm for 1 min. Finally, the plate was incubated at 37° C. for 30 min, and the absorbance value at 405 nm was measured. In the 200 μL of reaction system, the final concentrations of AAApNA were 0, 0.125, 0.166, 0.2, 0.25, 0.33, 0.6, 0.75, and 1.25 mM, respectively. Make three repetitions for each concentration and plot the OD405 nm value with time to obtain the corresponding curve. Divide the slope of the curve by the slope of the standard curve and the enzyme concentration to obtain the initial velocity V0 (mM/(min*mM protein). Plot the initial velocity V0 with the concentration of substrate AAApNA using Prism software, and the Michaelis constant Km value of elastase hydrolyzing AAApNA was obtained.
• (1) Added a total 190 μL of different concentrations of peptides (ECs) against elastase and reaction buffer (20 mM CaCl2, 50 mM Tris-HCl buffer (pH 8.0)) into the pre-cold 96 well plate, followed by preheating at 37° C. for 5 min and centrifugated at 500 rpm for 1 min and allowed to stand for 4 minutes. Then added 8 μL of 12.5 μM elastase and incubated at 37° C. for 10 min and centrifugated at 500 rpm for 1 min and allowed to stand for 9 minutes. Finally, added 2 μL of 100 mM AAApNA, and mixed by centrifugation at 500 rpm for 1 min. The plate was incubated at 37° C. for 60 min, and the absorbance value at 405 nm was measured. Three repetitions were made, and only reaction buffer and substrate were added in the blank control as the minimum absorption value (Min OD405 nm); Only reaction buffer, enzyme and substrate were added in the negative control as the maximum absorption value (Max OD405 nm). • (2) In the 200 μL of reaction system, the final concentrations of elastase and AAApNA were 0.5 μM and 1 mM, respectively. • (3) Data statistics
Residual activity of enzyme (%)=(1−(Max OD405 nm−Sample OD405 nm)/(Max OD405 nm−Min OD405 nm))*100 […]

Read-outs that look alike come from different tables or passages of the source. Bridge positions count the residues as written; N and C are the ends. Square brackets hold non-standard residues; d marks the D form. Peptide text beside a SMILES is read from it. Hyp = O=C(O)[C@@H]1C[C@@H](O)CN1

The term IC50 denotes the concentration needed to halve the response being measured. The low end stands for inhibition by little substance, the high end for a need for much substance. In turn, `CC[C@H](C)[C@@H]1NC(=O)[C@@H]2CCCN2C(=O)[C@@H]2CCCN2C(=O)[C@H]([C@@H](C)CC)NC(=O)[C@H](CO)NC(=O)[C@H](C)NC(=O)[C@H]([C@@H](C)O)NC(=O)[C@H](C)NC(=O)[C@H](CC(C)C)NC(=O)CNC(=O)CNC(=O)[C@@H](N)CSSC[C@@H](C(=O)N[C@@H](CCC(N)=O)C(=O)O)NC1=O` [EC16] (H-CGGLATASIPPICQ-OH; disulfide 1-13; N-terminus and C-terminus assumed) yielded an IC50 greater than 50000 nM.

In turn, `CC[C@H](C)[C@@H]1NC(=O)[C@H](CO)NC(=O)[C@H](C)NC(=O)[C@H]([C@@H](C)O)NC(=O)[C@H](CCC(=O)O)NC(=O)[C@H](CCCNC(=N)N)NC(=O)CNC(=O)[C@@H](N)CSSC[C@@H](C(=O)O)NC(=O)[C@H](CCCCN)NC(=O)[C@H](CCC(N)=O)NC(=O)[C@@H]2CCCN2C(=O)[C@@H]2CCCN2C1=O` [EC10] (H-CGRETASIPPQKC-OH; disulfide 1-13; N-terminus and C-terminus assumed) came in with a concentration for half-maximal inhibition (IC50) greater than 50000 nM.

Broadly, the Ki is a measure of affinity in units of concentration, obtained from inhibition or displacement. `CC[C@H](C)[C@@H]1NC(=O)[C@@H]2CCCN2C(=O)[C@@H]2CCCN2C(=O)[C@H]([C@@H](C)CC)NC(=O)[C@H](CO)NC(=O)[C@H](C)NC(=O)[C@H]([C@@H](C)O)NC(=O)[C@@H](NC(=O)[C@@H](N)CC(C)C)CSSC[C@@H](C(=O)N[C@@H](CCC(N)=O)C(=O)O)NC1=O` [EC12] (H-LCTASIPPICQ-OH; disulfide 2-10; N-terminus and C-terminus assumed): the “inhibitory activity against elastase (in words)” value is listed as “better inhibitory activity against Elastase” and it took 400 nM to reach half-maximal inhibition (IC50). In addition, where the note is “peptide 0.001 μM”, the “Residual activity of elastase” value came out at 98.8 ± 1.1%. The “Residual activity of elastase” value (peptide 0.01 μM) is given as 97.8 ± 1.0%. Further, the “Residual activity of elastase” value (peptide 0.06 μM) is given as 98.2 ± 2.1%. Where the note is “peptide 0.25 μM”, the “Residual activity of elastase” value amounted to 72.2 ± 5.9%. In addition, the “Residual activity of elastase” value (peptide 0.3 μM) turned out to be 59.9 ± 3.2%. Further, under “peptide 0.75 μM”, the “Residual activity of elastase” value stood at 25.1 ± 3.6%. In addition, the “Residual activity of elastase” value (peptide 1 μM) is recorded as 12.7 ± 1.0%. Further, the “Residual activity of elastase” value (peptide 10 μM) worked out at 1.3 ± 0.1%. For the same molecule, the “Residual activity of elastase” value (peptide 100 μM) was 0.2 ± 0.0%. Moreover, the “Residual activity of elastase” value (peptide 1000 μM) is listed as 0.3 ± 0.0%. Further, for the setting “read-out: Ki against elastase”, the inhibition constant (Ki) turned out to be 110 nM.

The molecule `CC[C@H](C)[C@H](N)C(=O)N[C@H]1CSSC[C@@H](C(=O)N[C@@H](CCC(N)=O)C(=O)O)NC(=O)[C@H]([C@@H](C)CC)NC(=O)[C@@H]2CCCN2C(=O)[C@@H]2C[C@@H](O)CN2C(=O)[C@H]([C@@H](C)CC)NC(=O)[C@H](CO)NC(=O)[C@H](C)NC(=O)[C@H]([C@@H](C)O)NC1=O` [EC47, Ile-Cys-Thr-Ala-Ser-Ile-Hyp-Pro-Ile-Cys-Gln] (H-ICTASI[Hyp]PICQ-OH; disulfide 2-10; C-terminus assumed) registered an IC50 of 400 nM. The inhibitory constant (Ki) (read-out: Ki) is 110 nM.

In the case of `CC[C@H](C)[C@@H]1NC(=O)[C@H](CO)NC(=O)[C@H](C)NC(=O)[C@H]([C@@H](C)O)NC(=O)[C@@H](NC(=O)[C@@H](N)CC(C)C)CSSC[C@@H](C(=O)N[C@@H](Cc2ccc(O)cc2)C(=O)O)NC(=O)[C@H](CCC(N)=O)NC(=O)[C@@H]2CCCN2C(=O)[C@@H]2CCCN2C1=O` [EC1] (H-LCTASIPPQCY-OH; disulfide 2-10; C-terminus assumed), the “inhibitory activity against elastase (in words)” value is on record as “better inhibitory activity against Elastase”. In addition, the inhibitory constant (Ki) (read-out: Ki) is 330 nM.

`CC[C@H](C)[C@@H]1NC(=O)[C@@H]2C[C@@H](O)CN2C(=O)[C@@H](N)CSSC[C@@H](C(=O)N[C@@H](CCC(N)=O)C(=O)O)NC(=O)[C@H]([C@@H](C)CC)NC(=O)[C@@H]2CCCN2C(=O)[C@@H]2CCCN2C(=O)[C@H]([C@@H](C)CC)NC(=O)[C@H](CO)NC(=O)[C@H](C)NC(=O)[C@H]([C@@H](C)O)NC(=O)[C@H](C)NC1=O` [EC46] (H-C[Hyp]IATASIPPICQ-OH; disulfide 1-12) yielded a concentration for half-maximal inhibition (IC50) greater than 50000 nM.

Consider `CC[C@H](C)[C@@H]1NC(=O)[C@H](CO)NC(=O)[C@H](C)NC(=O)[C@H]([C@@H](C)O)NC(=O)CNC(=O)[C@H](CC(C)C)NC(=O)CNC(=O)[C@@H](N)CSSC[C@@H](C(=O)N[C@@H](Cc2ccc(O)cc2)C(=O)O)NC(=O)[C@H](CCC(N)=O)NC(=O)[C@@H]2CCCN2C(=O)[C@@H]2CCCN2C1=O` [EC4] (H-CGLGTASIPPQCY-OH; disulfide 1-12), for which the half-inhibitory concentration (IC50) is greater than 50000 nM.

Take `CC[C@H](C)[C@@H]1NC(=O)[C@@H]2CCCN2C(=O)[C@@H](N)CSSC[C@@H](C(=O)N[C@@H](CCC(N)=O)C(=O)O)NC(=O)[C@H]([C@@H](C)CC)NC(=O)[C@@H]2CCCN2C(=O)[C@@H]2CCCN2C(=O)[C@H]([C@@H](C)CC)NC(=O)[C@H](CO)NC(=O)[C@H](C)NC(=O)[C@H]([C@@H](C)O)NC(=O)[C@H](C)NC1=O` [EC44] (H-CPIATASIPPICQ-OH; disulfide 1-12): the IC50 was greater than 50000 nM.

As for `CC[C@H](C)[C@@H]1NC(=O)[C@H](CO)NC(=O)[C@H](C)NC(=O)[C@H]([C@@H](C)O)NC(=O)[C@@H](NC(=O)[C@@H](N)CC(C)C)CSSC[C@@H](C(=O)N[C@@H](CCCNC(=N)N)C(=O)O)NC(=O)[C@H](CCC(N)=O)NC(=O)[C@@H]2CCCN2C(=O)[C@@H]2CCCN2C1=O` [EC20] (H-LCTASIPPQCR-OH; disulfide 2-10; N-terminus and C-terminus assumed), the half-inhibitory concentration (IC50) is greater than 50000 nM.

Turning to `CC[C@H](C)[C@@H]1NC(=O)[C@H](CO)NC(=O)[C@H](C)NC(=O)[C@H]([C@@H](C)O)NC(=O)[C@@H](NC(=O)[C@@H](N)CC(C)C)CSSC[C@@H](C(=O)N[C@@H](CCC(N)=O)C(=O)O)NC(=O)[C@H](CCC(N)=O)NC(=O)[C@@H]2CCCN2C(=O)[C@@H]2CCCN2C1=O` [EC18] (H-LCTASIPPQCQ-OH; disulfide 2-10; N-terminus and C-terminus assumed), the “Residual activity of elastase” value is, setting by setting: (peptide 0.001 μM) 99.2 ± 2.0%; (peptide 0.01 μM) 100.6 ± 1.5%; (peptide 0.1 μM) 97.0 ± 4.0%; (peptide 0.2 μM) 100.2 ± 2.0%; (peptide 0.4 μM) 90.3 ± 0.5%; (peptide 0.6 μM) 73.5 ± 4.8%. The “Residual activity of elastase” value (peptide 1 μM) turned out to be 49.4 ± 3.3%, the “Residual activity of elastase” value (peptide 6 μM) worked out at 8.4 ± 0.4%, the “Residual activity of elastase” value (peptide 10 μM) was 3.6 ± 0.5% and the “Residual activity of elastase” value (peptide 100 μM) is 0.1 ± 0.0%.

In turn, `CC[C@H](C)[C@@H]1NC(=O)[C@@H]2CCCN2C(=O)[C@@H]2CCCN2C(=O)[C@H]([C@@H](C)CC)NC(=O)[C@H](CO)NC(=O)[C@H](CC(C)C)NC(=O)[C@H]([C@@H](C)O)NC(=O)[C@H](C)NC(=O)[C@H](CC(C)C)NC(=O)CNC(=O)CNC(=O)[C@@H](N)CSSC[C@@H](C(=O)N[C@@H](CCC(N)=O)C(=O)O)NC1=O` [EC17] (H-CGGLATLSIPPICQ-OH; disulfide 1-13) registered an IC50 greater than 50000 nM.

Source of the values: US20230416329A1, “A PEPTIDE WITH DISULFIDE BONDS AND INHIBITORY ACTIVITY AGAINST SERINE PROTEASES, DERIVED HYBRID PEPTIDES THEREOF, AND USES THEREOF” (INSTITUTE OF MATERIA MEDICA , CHINESE ACADEMY OF MEDICAL …, priority 2020, published 2023).
